Experimental findings from patent US8129398B2 (priority 2008, dated 2012) are described below.

The subject of assay [1] is recombinant NL-Rluc virus. The experiment in a line: Inhibition of HIV replication (recombinant NL-Rluc virus, Renilla luciferase reporter). The assay is classed as cell-based. The conditions noted are these: read-out: Antiviral activity; NL-Rluc virus; serum condition not specified (10% FBS, 15 mg/ml human serum albumin/10% FBS or 40% human serum/5% FBS); class symbols. On the technique in general: Reporter assays use an easily measured gene product as a stand-in for the process of interest.

The target of assay [2] is T1, HIV-integrase (Human immunodeficiency virus type 1 group M subtype B, UniProt P12497).
T1 construct: Recombinant integrase (0.26 ng) was incubated with the beads
The experiment in a line: HIV-Integrase Inhibition Activity (SPA bead integration assay with P33 labeled target DNA). The conditions noted are these: recombinant integrase, class symbols; read-out: in vitro activity. The assay is classed as biochemical. In outline:
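Strand integration read as bead-proximity CPM after P33 target DNA (0.1 fmol) and inhibitor were added to washed integrase–substrate DNA complexes on SPA beads. Enzyme bound 90 min at 37° C; EDTA (10 mM final) terminated reaction; IC50 graded A/B/C.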

pEC50, pIC50: −log10 of the molar value.

`CN(C)C(=O)C(=O)NC12CCC(CCn3c1nc(C(=O)NCc1ccc(F)cc1)c(O)c3=O)C2` (single isomer, unassigned) [Example 414, Ethanediamide, N′-[2-[[[(4-fluorophenyl)methyl]amino]carbonyl]-7,8,9,10-tetrahydro-3-hydroxy-4-oxo-8,11-methano-4H-pyrimido[1,2-a]azocin-11(6H)-yl]-N,N-dimethyl-]: the pEC50 in assay [1] was more than 8.00. Also, in assay [2], the pIC50 was more than 8.00.
